Reference: patent US12662451B2, “Chemical compounds and uses thereof” (GLAXOSMITHKLINE INTELLECTUAL PROPERTY (NO.4) LIMITED, priority 2023, dated 2026)
Like-named read-outs stand apart in the source and are kept apart here. Values belong to the molecule of their own block, whether it stands above or below them.

Experiments:
[1] = target: T1, recombinant full-length WRN protein (1-1432) (Homo sapiens, UniProt Q14191); assay: WRN unwinding activity, fluorogenic 384-well assay (Example A); format: biochemical; conditions: WRN unwinding activity, 4 hr; Table 2; read-out: 4 hr UNW pIC50 (converted)
T1 construct: recombinant full-length WRN protein (1-1432)
Outline: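 200 pM enzyme (2× stock) preincubated with compound 4 h at ambient temperature, then 200 μM ATP and 12 nM quenched TAMRA-labelled dsDNA (2× stocks) added for 60 min; EDTA-quenched. Buffer 25 mM Tris pH 8.0, 5 mM NaCl, 2 mM MgCl2. Fluorescence at 525/598 nm; pIC50 from four-parameter fit.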

[2] = Cell culture media unbound percentage and stability by rapid equilibrium dialysis (Example C); format: in vitro ADME; conditions: bovine, cell assay medium (RPMI-1640 with 10% fetal bovine serum), pH 7.4, rapid equilibrium dialysis, 4 hours at 37° C., read-out: Cell Culture Media Binding (% unbound)
Protocol: (§1) It was observed that the compounds of the present disclosure are bound to cell assay media to various degrees, which would affect the cellular potency analysis in Example B. To measure free drug potency, concentrations used in the cell assays were corrected with the measured free fraction determined in the cell assay media. Compounds were incubated in a rapid equilibrium dialysis (RED) at a nominal concentration of 1 μM, using a dialysis buffer of phosphate-buffered saline (PBS, 100 mM sodium phosphate+150 mM sodium chloride, pH 7.4). The test compound was spiked into the medium. Aliquots were added to the donor wells of a RED plate in triplicate, and blank PBS was added to each receiver well, at volumes recommended by the manufacturer. Plates were incubated with shaking at 200 rpm for 4 hours at 37° C. The resultant samples were analysed by LC-MS/MS using a specific and sensitive method. Results were reported as analyte:internal standard peak area ratios (PARs), and the percent unbound was calculated with the following equation:
[formula] where D=the matrix dilution factor (D=1 for media); Apparent Fu=Crec/Cdon; Crec=PAR in receiver samples; Cdon=PAR in donor samples. Percent stability was calculated by:
(§2) [formula] where Cfinal=PAR in the T=240 minute sample; Cinitial=PAR in the T=0 minute sample. Cell culture media unbound percentage and calculated free drug potency of selected compounds along with their measured potency from Example B are shown in Table 3.

[3] = tested on: SW48 human colorectal cancer cells; assay: Calculated free drug potency in SW48 cell assay, corrected with media free fraction (Example C); format: cell-based; conditions: Homo sapiens, SW48, SW48 pCC50 corrected with measured free fraction in cell assay media
Protocol: as §1, §2

[4] = tested on: SW48 human colorectal cancer cells (MSI-H cancer cells); assay: SW48 cell viability, CellTiter-Glo, 120 hours (Example B); conditions: Homo sapiens
Protocol: SW48 human colorectal cancer cells (MSI-H cancer cells) were obtained from the American Type Culture Collection and maintained in growth medium composed of RPMI-1640 supplemented with 10% fetal bovine serum. Cells were maintained in a humidified 5% CO2 incubator at 37° C. Cell dissociation was conducted using TrypLE Select to detach cells from culture flasks. Following dissociation, cells were centrifuged briefly and resuspended in assay medium RPMI-1640+10% fetal bovine serum. Black 384-well assay plates were prepared from source plates of DMSO and compounds dissolved in DMSO prior to cell dispensation. These source plates were prepared in eleven point, 3-fold serial dilutions from 10 mM stocks stored at 4° C. Compounds and DMSO controls were dispensed into assay plates at 150 nanoliters per well from source plates using Labcyte Echo 555 or Echo 655T dispensers with Column 6 and Column 18 containing DMSO only. Cells were then seeded into prepared assay plates in 50 microliters assay medium at 250 cells per well into Columns 1 thru 17 and Columns 19-24. Assay medium without cells was added to column 18 to serve as a surrogate for 100% cell cytotoxicity. Following incubation for 120 hours in a humidified 5% CO2 incubator at 37° C., cellular ATP concentration of each well was measured and used as a surrogate of cell viability. This was performed by adding 50 microliters of CellTiter-Glo reagent to each well followed by a 10-minute incubation at room temperature. Luminescence was measured on a Synergy Neo or Synergy Neo2 multimode plate reader. Compound cytotoxic response (% C) was normalized to the robust means of column 6 (Control 1, 0% Cytotoxicity) and column 18 (Control 2, 100% Cytotoxicity) and normalized % cytotoxicity (% C) calculated. % C=100−100*((Compound−Control 2)/(Control1−Control2)). These normalized data were then used to determine a 50% cytotoxic response (CC50) using 4-parameter logistic curve model 201 in Activity Base XE:
[formula] • where A=minimum asymptote (% cytotoxicity), B=maximum asymptote (% cytotoxicity), C=Log CC50 (pCC50), D=Hill slope, and x=[inhibitor], (M).

[5] = SW48, 120 h, read-out: SW48 pCC50, SW48 cell viability, 120 hours incubation (converted), Table 2
[6] = SW48, read-out: SW48 pCC50, measured potency from Example B, as repeated in Table 3 (converted)

T1 sequence (Q14191 whole entry): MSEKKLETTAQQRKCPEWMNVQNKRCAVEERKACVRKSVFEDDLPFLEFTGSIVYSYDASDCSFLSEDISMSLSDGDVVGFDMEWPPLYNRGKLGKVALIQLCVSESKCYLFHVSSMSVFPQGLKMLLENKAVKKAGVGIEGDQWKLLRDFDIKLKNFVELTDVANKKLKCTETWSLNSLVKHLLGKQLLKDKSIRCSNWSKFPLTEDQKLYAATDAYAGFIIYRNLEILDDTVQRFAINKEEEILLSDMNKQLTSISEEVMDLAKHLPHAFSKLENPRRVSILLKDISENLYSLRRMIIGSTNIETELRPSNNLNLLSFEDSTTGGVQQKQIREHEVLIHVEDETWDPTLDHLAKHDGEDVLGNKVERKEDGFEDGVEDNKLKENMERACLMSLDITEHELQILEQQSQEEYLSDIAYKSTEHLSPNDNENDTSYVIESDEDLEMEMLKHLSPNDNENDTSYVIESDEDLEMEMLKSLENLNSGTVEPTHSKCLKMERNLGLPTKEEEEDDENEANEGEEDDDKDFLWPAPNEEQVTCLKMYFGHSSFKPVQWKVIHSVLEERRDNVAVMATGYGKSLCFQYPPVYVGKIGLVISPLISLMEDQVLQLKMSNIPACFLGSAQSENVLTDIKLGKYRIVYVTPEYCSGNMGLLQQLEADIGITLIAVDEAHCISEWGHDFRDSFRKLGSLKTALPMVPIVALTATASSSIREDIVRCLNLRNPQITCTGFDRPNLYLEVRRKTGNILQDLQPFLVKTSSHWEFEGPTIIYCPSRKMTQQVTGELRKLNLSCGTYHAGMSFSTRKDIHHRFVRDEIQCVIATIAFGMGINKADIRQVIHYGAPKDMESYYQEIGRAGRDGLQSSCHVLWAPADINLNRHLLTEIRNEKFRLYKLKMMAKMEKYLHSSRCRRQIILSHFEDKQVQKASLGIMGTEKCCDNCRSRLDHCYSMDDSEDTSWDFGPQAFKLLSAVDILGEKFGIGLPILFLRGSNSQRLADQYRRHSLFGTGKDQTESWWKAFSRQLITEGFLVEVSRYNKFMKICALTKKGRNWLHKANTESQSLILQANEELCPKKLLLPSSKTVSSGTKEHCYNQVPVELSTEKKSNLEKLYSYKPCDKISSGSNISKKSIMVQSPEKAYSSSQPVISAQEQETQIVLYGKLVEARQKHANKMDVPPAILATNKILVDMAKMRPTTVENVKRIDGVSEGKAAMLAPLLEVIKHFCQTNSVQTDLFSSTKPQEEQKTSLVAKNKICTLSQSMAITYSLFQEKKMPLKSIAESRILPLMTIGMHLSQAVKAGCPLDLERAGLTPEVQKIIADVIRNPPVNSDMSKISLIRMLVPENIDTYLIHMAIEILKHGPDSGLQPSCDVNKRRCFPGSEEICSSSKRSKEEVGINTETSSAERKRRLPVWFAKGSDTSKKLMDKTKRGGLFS

Compound: Cc1nc2cc(S(=O)(=O)N(C)c3ccc([C@H]4C[C@@H](OC5CCC5)C[C@@H](C(=O)Nc5ccc(C(F)(F)F)cc5F)[C@@H]4C(=O)O)cc3)ccc2n1C (stereo in doubt) [Example 325, rel-(1R,2R,4R,6S)-4-cyclobutoxy-2-((2-fluoro-4-(trifluoromethyl)phenyl)carbamoyl)-6-(4-((N,1,2-trimethyl-1H-benzo[d]imidazole)-5-sulfonamido)phenyl)cyclohexane-1-carboxylic acid]
IC50 [1]: 2 nM | fraction unbound at 4 h, 1 µM [2]: 0.0862 | CC50 [3]: 17.4 nM | CC50 [4, 5]: 200 nM | CC50 [4, 6]: 200 nM

Compound: Cc1nc2cc(S(=O)(=O)N(C)c3ccc([C@H]4CCC[C@@H](C(=O)Nc5ccc(C(F)(F)F)cc5F)[C@@H]4C(=O)O)nc3)ccc2n1C (relative stereo) [Example 161, rel-(1R,2R,6S)-2-((2-fluoro-4-(trifluoromethyl)phenyl)carbamoyl)-6-(5-((N,1,2-trimethyl-1H-benzo[d]imidazole)-5-sulfonamido)pyridin-2-yl)cyclohexane-1-carboxylic acid]
IC50 [1]: 2.51 nM | fraction unbound at 4 h, 1 µM [2]: 0.0481 | CC50 [3]: 38 nM | CC50 [4, 5]: 794 nM | CC50 [4, 6]: 794 nM

Compound: COc1cccc(S(=O)(=O)N(C)c2ccc([C@H]3CCC[C@@H](C(=O)Nc4ccc(C(F)(F)F)cc4F)[C@@H]3C(=O)O)cc2)c1 (racemic) [Example 82]
IC50 [1]: 5.01 nM | fraction unbound at 4 h, 1 µM [2]: 0.0147 | CC50 [3]: 74.1 nM | CC50 [4, 5]: 5010 nM | CC50 [4, 6]: 5010 nM

Compound: Cc1nc2cc(S(=O)(=O)N(C)c3ccc([C@H]4CCC[C@@H](C(=O)Nc5ccc(C(F)(F)F)cc5)[C@@H]4C(=O)O)cc3)ccc2n1C [Example 173, (1R,2R,6S)-2-((4-(trifluoromethyl)phenyl)carbamoyl)-6-(4-((N,1,2-trimethyl-1H-benzo[d]imidazole)-5-sulfonamido)phenyl)cyclohexane-1-carboxylic acid]
IC50 [1]: 5.01 nM | fraction unbound at 4 h, 1 µM [2]: 0.0163 | CC50 [3]: 10.2 nM | CC50 [4, 5]: 631 nM | CC50 [4, 6]: 631 nM

Compound: CCCO[C@@H]1C[C@H](c2ccc(N(C)S(=O)(=O)c3ccc4c(c3)nc(C)n4C)cc2)[C@@H](C(=O)O)[C@H](C(=O)Nc2ccc(C(F)(F)F)cc2F)C1 (stereo in doubt) [Example 151, rel-(1R,2R,4R,6S)-2-((2-fluoro-4-(trifluoromethyl)phenyl)carbamoyl)-4-propoxy-6-(4-((N,1,2-trimethyl-1H-benzo[d]imidazole)-5-sulfonamido)phenyl)cyclohexane-1-carboxylic acid]
IC50 [1]: 3.16 nM | fraction unbound at 4 h, 1 µM [2]: 0.0233 | CC50 [3]: 11.7 nM | CC50 [4, 5]: 501 nM | CC50 [4, 6]: 501 nM

Compound: CC(=O)N1CCc2cc(S(=O)(=O)N(C)c3ccc([C@H]4CCC[C@@H](C(=O)Nc5ccc(C(F)(F)F)cc5F)[C@@H]4C(=O)O)cc3)ccc21 (single isomer, unassigned) [Example 90]
IC50 [1]: 3.98 nM | fraction unbound at 4 h, 1 µM [2]: 0.0553 | CC50 [3]: 69.2 nM | CC50 [4, 5]: 1260 nM | CC50 [4, 6]: 1260 nM

Compound: CN1CCC[C@@H](c2cccc(S(=O)(=O)N(C)c3ccc([C@H]4CCC[C@@H](C(=O)Nc5ccc(C(F)(F)F)cc5F)[C@@H]4C(=O)O)cc3)c2)C1 [Example 116, (1R,2R,6S)-2-((2-fluoro-4-(trifluoromethyl)phenyl)carbamoyl)-6-(4-((N-methyl-3-((S)-1-methylpiperidin-3-yl)phenyl)sulfonamido)phenyl)cyclohexane-1-carboxylic acid]
IC50 [1]: 1.58 nM | fraction unbound at 4 h, 1 µM [2]: 0.286 | CC50 [3]: 145 nM | CC50 [4, 5]: 501 nM | CC50 [4, 6]: 501 nM

The next lines start with results.

IC50 [1]: 1.58 nM | fraction unbound at 4 h, 1 µM [2]: 0.256
Compound: CC(=O)N(C)[C@H]1C[C@H](c2ccc(N(C)S(=O)(=O)c3ccc4c(c3)nc(C)n4C)cc2)[C@@H](C(=O)O)[C@H](C(=O)Nc2ccc(C(F)(F)F)cc2F)C1 (stereo in doubt) [Example 294, rel-(1R,2R,4S,6S)-2-((2-fluoro-4-(trifluoromethyl)phenyl)carbamoyl)-4-(N-methylacetamido)-6-(4-((N,1,2-trimethyl-1H-benzo[d]imidazole)-5-sulfonamido)phenyl)cyclohexane-1-carboxylic acid]
CC50 [3]: 1620 nM | CC50 [4, 5]: 6310 nM | CC50 [4, 6]: 6310 nM

IC50 [1]: 7.94 nM | fraction unbound at 4 h, 1 µM [2]: 0.114
Compound: Cc1nc2cc(S(=O)(=O)N(C)c3ccc([C@H]4CCC[C@@H](C(=O)Nc5ccc6c(c5)CC(F)(F)C6)[C@@H]4C(=O)O)cc3)ccc2n1C [Example 194, (1R,2R,6S)-2-((2,2-difluoro-2,3-dihydro-1H-inden-5-yl)carbamoyl)-6-(4-((N,1,2-trimethyl-1H-benzo[d]imidazole)-5-sulfonamido)phenyl)cyclohexane-1-carboxylic acid]
CC50 [3]: 1150 nM | CC50 [4, 5]: 10000 nM

IC50 [1]: 3.98 nM | fraction unbound at 4 h, 1 µM [2]: 0.028
Compound: Cc1nc2cc(S(=O)(=O)N(C)c3ccc([C@H]4C[C@H](N5CCCC(F)(F)C5)C[C@@H](C(=O)Nc5ccc(C(F)(F)F)cc5F)[C@@H]4C(=O)O)cc3)ccc2n1C (stereo in doubt) [Example 352, rel-(1R,2R,4S,6S)-4-(3,3-difluoropiperidin-1-yl)-2-((2-fluoro-4-(trifluoromethyl)phenyl)carbamoyl)-6-(4-((N,1,2-trimethyl-1H-benzo[d]imidazole)-5-sulfonamido)phenyl)cyclohexane-1-carboxylic acid]
CC50 [3]: 112 nM | CC50 [4, 5]: 3980 nM | CC50 [4, 6]: 3980 nM

IC50 [1]: 3.98 nM | fraction unbound at 4 h, 1 µM [2]: 0.112
Compound: Cc1nc2cc(S(=O)(=O)N(C)c3ccc([C@H]4C[C@@H](OC[C@@H]5CCOC5)C[C@@H](C(=O)Nc5ccc(C(F)(F)F)cc5F)[C@@H]4C(=O)O)cc3)ccc2n1C (stereo in doubt) [Example 320, (1R*,2R*,4R*,6S*)-2-((2-fluoro-4-(trifluoromethyl)phenyl)carbamoyl)-4-(((R)-tetrahydrofuran-3-yl)methoxy)-6-(4-((N,1,2-trimethyl-1H-benzo[d]imidazole)-5-sulfonamido)phenyl)cyclohexane-1-carboxylic acid]
CC50 [3]: 8.91 nM | CC50 [4, 5]: 79.4 nM | CC50 [4, 6]: 79.4 nM

IC50 [1]: 1580 nM | fraction unbound at 4 h, 1 µM [2]: 0.169
Compound: Cc1nc2cc(S(=O)(=O)N(C)c3ccc([C@@H]4C[C@@H](N5CCCC(F)(F)C5)C[C@H](C(=O)Nc5ccc(C(F)(F)F)cc5F)[C@H]4C(=O)O)cc3)ccc2n1C (stereo in doubt) [Example 362, rel-(1R,2R,4S,6S)-4-(3,3-difluoropiperidin-1-yl)-2-((2-fluoro-4-(trifluoromethyl)phenyl)carbamoyl)-6-(4-((N,1,2-trimethyl-1H-benzo[d]imidazole)-5-sulfonamido)phenyl)cyclohexane-1-carboxylic acid]
CC50 [3]: 1700 nM | CC50 [4, 5]: 10000 nM

IC50 [1]: 2.51 nM | fraction unbound at 4 h, 1 µM [2]: 0.146
Compound: Cc1nc2cc(S(=O)(=O)N(C)c3ccc([C@H]4CCC[C@@H](C(=O)Nc5ccc(C(F)F)cc5F)[C@@H]4C(=O)O)cc3)ccc2n1C [Example 179, (1R,2R,6S)-2-((4-(difluoromethyl)-2-fluorophenyl)carbamoyl)-6-(4-((N,1,2-trimethyl-1H-benzo[d]imidazole)-5-sulfonamido)phenyl)cyclohexane-1-carboxylic acid]
CC50 [3]: 145 nM | CC50 [4, 5]: 1000 nM | CC50 [4, 6]: 1000 nM
